Values quoted from earlier work as cited in patent publication US20250352523A1, “TRIPLE PHARMACEUTICAL COMPOSITION FOR PROTEINACEOUS INFECTION” (priority 2024, published 2025).

Experiments:
[1] = tested on: AD; details: in vivo
[2] = tested on: patients with AD; details: human, in vivo
[3] = tested on: AD patients; details: twelve months' treatment, versus placebo

| SMILES | beneficial effects on AD [1] | also measured |
| --- | --- | --- |
| CC(=O)Nc1ccc(O)cc1 [Acetaminophen] | not found to have beneficial effects |  |
| COc1ccc2cc([C@H](C)C(=O)O)ccc2c1 [Naproxen] |  | cognitive function in patients with AD [2]: did not improve cognitive function |
| CC(=O)Oc1ccccc1C(=O)O [aspirin] | not found to have beneficial effects |  |
| CO[C@H]1/C=C/O[C@@]2(C)Oc3c(C)c(O)c4c(O)c(c(/C=N/N5CCN(C)CC5)c(O)c4c3C2=O)NC(=O)/C(C)=C\C=C\[C@H](C)[C@H](O)[C@@H](C)[C@@H](O)[C@@H](C)[C@H](OC(C)=O)[C@@H]1C [rifampin] |  | effects on cognition or function in AD [3]: no beneficial effects |
